Measured values taken from US20060165803A1, “Pharmaceutical compositions of sertaconazole for vaginal use” (priority 2002, published 2006).

Assays:
C. tropicalis = C. tropicalis (21); cited from earlier work
C. parapsilosis = C. parapsilosis (22); cited from earlier work
C. krusei = C. krusei (13); cited from earlier work
C. albicans [1] = conditions: C. albicans (73); cited from earlier work
C. glabrata = C. glabrata (16); cited from earlier work
C. guillermondii = C. guillermondii (5); cited from earlier work
[2] = test system: reconstituted vaginal epithelial cells; test: In vitro permeation test through reconstituted vaginal epithelium, Franz cell; format: in vitro ADME; conditions: reconstituted human vaginal epithelium, phosphate buffer pH 7.4, 32° C.
Experimental: The in vitro dissolution and transdermal permeation tests of sertaconazole nitrate from the cream formulations of Example 1 were evaluated in comparison with a conventional cream formulation of 2% sertaconazole nitrate.
Both tests were carried out with Franz cell-type diffusion systems, with a diffusional area of 2.54 cm^2. 1 ml of cream was placed in the donor compartment and 11 ml of a suitable receptor medium were placed in the receptor compartment. For the dissolution test, a 0.45-μm Millipore membrane of nylon esters was used, and the receptor medium was made up of a mixture of ethanol-water (1:1). Vaginal epithelium was used as permeation membrane and phosphate buffer solution at pH 7.4 was used as the receptor medium.
The 4-cm^2 membranes used in the permeation test were formed by reconstituted vaginal epithelial cells (5-day culture) from transformed cells of human vaginal epithelium on polycarbonate support. These cells were obtained from cell lines of vulvar epidermoid carcinomas. The test temperature was 32° C. for both cases.

C. albicans [3] = conditions: against C. albicans; cited from earlier work

c1ccc(-c2ccc(C(c3ccccc3)n3ccnc3)cc2)cc1 (centres unmarked) [Bifonazole, bifonazole]
minimum inhibitory concentration (MIC) (C. tropicalis): 9.51 | minimum inhibitory concentration (MIC) (C. parapsilosis): 3.76 | minimum inhibitory concentration (MIC) (C. krusei): 2.20 | minimum inhibitory concentration (MIC) (C. albicans [1]): 3.6 | minimum inhibitory concentration (MIC) (C. glabrata): 4.09 | minimum inhibitory concentration (MIC) (C. guillermondii): 3.87

Clc1ccc(COC(Cn2ccnc2)c2ccc(Cl)cc2Cl)cc1 (centres unmarked) [Econazole, econazole]
minimum inhibitory concentration (MIC) (C. tropicalis): 3.14 | minimum inhibitory concentration (MIC) (C. parapsilosis): 0.75 | minimum inhibitory concentration (MIC) (C. krusei): 0.91 | minimum inhibitory concentration (MIC) (C. albicans [1]): 2.24 | minimum inhibitory concentration (MIC) (C. glabrata): 2.39 | minimum inhibitory concentration (MIC) (C. guillermondii): 1.11

Clc1ccc(C(Cn2ccnc2)OCc2csc3c(Cl)cccc23)c(Cl)c1 (centres unmarked) [Sertaconazole, sertaconazole]
minimum inhibitory concentration (MIC) (C. tropicalis): 1.67 | minimum inhibitory concentration (MIC) (C. parapsilosis): 0.31 | minimum inhibitory concentration (MIC) (C. krusei): 0.38 | absorption (permeation) through the vaginal mucosa [2]: less than 0.1 % of the dose | fungicide activity compared with imidazole antifungal drugs (C. albicans [3]): superior to most imidazole antifungal drugs | minimum inhibitory concentration (MIC) (C. albicans [1]): 1.02 | minimum inhibitory concentration (MIC) (C. glabrata): 0.78 | minimum inhibitory concentration (MIC) (C. guillermondii): 0.51
